In patent publication US20250109139A1, “TRICYCLIC COMPOUND, AND PREPARATION METHOD THEREFOR AND USE THEREOF” (SHANGHAITECH UNIVERSITY, priority 2022, published 2025):

Legend:
[1] = biological target: T1, 5-hydroxytryptamine 1A (5-HT1A) receptors (Homo sapiens (Human), UniProt P08908); experiment: 5-HT1A receptor radioligand competition binding assay ([3H]-LSD); settings: 293T membranes, read-out: Affinity Ki
Method: The affinity of the compounds of the present disclosure for 5-hydroxytryptamine 1A (5-HT1A) receptors was determined by a radioligand competition binding assay.
In the first step, a cell membrane component containing specific 5-HT1A receptors was prepared. […] A vacuum pump was used to suck off the culture medium, 3 mL of lysis buffer was added to each culture dish, and the cells were placed in a 4° C. cold room for 10 minutes. After the cells were detached, the cells were transferred to a 15 mL centrifuge tube and centrifuged at 1500 rpm for 5 minutes at 4° C., and the supernatant was discarded. The cell pellet was transferred to a tissue homogenizer, and 3 mL of lysis buffer was added and fully ground until the cells were broken. Then, cell suspension was equally aliquoted into several EP tubes, centrifuged at 12000 rpm for 5 minutes at 4° C., and the supernatant was discarded. The precipitate was the cell membrane component containing the 5-HT1A receptors.
First, a standard binding buffer was added to the cell membrane component containing the 5-HT1A receptors, and the cell membrane was disrupted and resuspended with an electric tissue homogenizer. 30 μL of membrane protein suspension was added to each well of a 96-well plate. Then, 30 μL of different drugs were added to the 96-well plate sequentially from bottom to top to ensure that the final drug concentrations were 10^−5 M, 10^−6 M, 10^−7 M, 10^−8 M, 10^−9 M, and 0 M, with two replicates per treatment. Next, 30 μL of [^3H]-LSD was added to each well of the 96-well plate. The plate was incubated at room temperature in the dark for 2 hours. Detection was conducted. The machine readout value reflected the amount of [^3H]-LSD bound on the membrane, and after further data processing, the binding affinity Ki values of different compounds for the 5-HT1A receptors were obtained.

[2] = biological target: T1, 5-hydroxytryptamine 1A (5-HT1A) receptors; experiment: 5-HT1A receptor β-arrestin2 BRET (recruitment); assay type: cell-based; settings: relative to endogenous ligand 5-hydroxytryptamine
Method: At the same time, in order to examine the downstream β-arrestin2 signaling pathway mediated by 5-HT1A receptors, on the first day, a 6 cm culture dish was used for transfection with 500 ng of 5-HT1A receptors containing C-terminal seaweed luciferase (5HT1AR-Rluc), 500 ng of G protein-coupled receptor kinase 2 (GRK2), 2500 ng of β-arrestin2 containing N-terminal green fluorescent protein (GFP2-ARRB2), and 14 μL of PEI. The next day, the confluent cells of a 6 cm culture dish were digested and reseeded into a 96-well plate with 100 μL of culture medium added to each well. On the third day, the drugs were added for test. The 96-well plate was taken out from the cell incubator to decant the culture medium, 40 µL of the substrate coelenterazine 400a (final concentration of 5 μM) was added to each well, and then 20 μL of different drugs were added sequentially from left to right to ensure that the final concentration of the drug decreased gradually from bottom to top, with two replicates per treatment. Finally, the prepared samples were loaded on machine for test. The machine readout value reflected the recruitment of β-arrestin2 to the membrane or the dissociation of G protein trimer. The former indicated the degree of activation of the β-arrestin2 signaling pathway downstream of the 5-HT1 serotonin 1A receptors, and the latter indicated the degree of activation of the G protein signaling pathway downstream of the serotonin 1A receptors.

dopamine D2 receptors [3] = biological target: T2, dopamine D2 receptors (Homo sapiens (Human), UniProt P14416); experiment: Dopamine D2 receptor radioligand competition binding assay ([3H]-Methylspiperone); settings: [3H]-Methylspiperone 0.3 to 0.5 nM, 293T membranes; read-out: Affinity Ki
T2 sequence (P14416 whole entry): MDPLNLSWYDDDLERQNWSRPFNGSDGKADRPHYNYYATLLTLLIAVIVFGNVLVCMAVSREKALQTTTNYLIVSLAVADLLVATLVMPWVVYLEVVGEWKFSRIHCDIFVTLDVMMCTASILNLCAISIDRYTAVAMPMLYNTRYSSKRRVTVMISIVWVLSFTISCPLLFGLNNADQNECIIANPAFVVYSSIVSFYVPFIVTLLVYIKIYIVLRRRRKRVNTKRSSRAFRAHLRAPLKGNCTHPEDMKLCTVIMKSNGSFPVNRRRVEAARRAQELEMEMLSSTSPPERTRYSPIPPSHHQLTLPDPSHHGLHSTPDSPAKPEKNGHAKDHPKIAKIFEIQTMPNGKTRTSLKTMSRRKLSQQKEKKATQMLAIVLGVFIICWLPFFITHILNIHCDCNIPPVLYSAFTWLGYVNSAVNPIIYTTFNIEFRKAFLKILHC
Procedure, shortened: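 Membranes from cells transfected with human D2 receptor, PEI-mediated; competition with [3H]-methylspiperone for 2 h at room temperature in the dark.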

[4] = biological target: T1, 5-hydroxytryptamine 1A (5-HT1A) receptors; experiment: 5-HT1A receptor Gαi1 BRET (G protein trimer dissociation); assay type: cell-based; settings: relative to endogenous ligand 5-hydroxytryptamine
dopamine D2 receptors [5] = biological target: T2, dopamine D2 receptors; experiment: Dopamine D2 receptor Gαi1 BRET (G protein trimer dissociation); assay type: cell-based; settings: for Emax: relative to endogenous ligand dopamine, read-out: Gαi1 BRET Emax % ± SEM; for EC50: unit printed only in Cariprazine cell, read-out: Gαi1 BRET EC50
Procedure, shortened: (§1)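 G-protein assay: cells co-transfected with D2 receptor, Gαi1-Rluc, Gβ3 and Gγ9-GFP (1 μg each); β-arrestin2 assay: D2-Rluc, GRK2 and GFP2-β-arrestin2 co-transfected. Cells were reseeded after one day and tested on day three. Drug dilution series were added in duplicate with coelenterazine 400a (5 μM final), and the BRET signal was read.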

dopamine D2 receptors [6] = biological target: T2, dopamine D2 receptors; experiment: Dopamine D2 receptor β-arrestin2 BRET (recruitment); assay type: cell-based; settings: for Emax: relative to endogenous ligand dopamine, read-out: β-arrestin2 BRET Emax % ± SEM; for EC50: unit printed only in Cariprazine cell, read-out: β-arrestin2 BRET EC50
Procedure, shortened: as §1

T1 sequence (P08908 whole entry): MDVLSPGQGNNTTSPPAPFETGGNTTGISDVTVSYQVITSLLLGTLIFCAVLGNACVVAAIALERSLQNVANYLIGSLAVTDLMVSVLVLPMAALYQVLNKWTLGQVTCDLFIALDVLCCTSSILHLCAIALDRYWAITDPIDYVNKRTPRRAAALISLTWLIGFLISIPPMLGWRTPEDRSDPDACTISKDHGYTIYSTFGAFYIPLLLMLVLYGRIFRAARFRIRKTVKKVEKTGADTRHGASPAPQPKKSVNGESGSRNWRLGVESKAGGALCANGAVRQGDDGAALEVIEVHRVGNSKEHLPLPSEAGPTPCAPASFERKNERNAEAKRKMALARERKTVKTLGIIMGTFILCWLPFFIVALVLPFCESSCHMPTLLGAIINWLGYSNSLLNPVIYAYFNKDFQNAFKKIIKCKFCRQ

| Ki [1] [nM] | Emax [2] [%] | Ki (dopamine D2 receptors [3]) [nM] | Emax [4] [%] | Emax (dopamine D2 receptors [5]) [%] | EC50 (dopamine D2 receptors [5]) [nM] | Emax (dopamine D2 receptors [6]) [%] | EC50 (dopamine D2 receptors [6]) [nM] | Structure (SMILES) |
| --- | --- | --- | --- | --- | --- | --- | --- | --- |
| 5.43 | 92 | 272 | 123 |  |  |  |  | COc1cccc2c3c(oc12)CN(CCNC(=O)C1CCC(F)(F)CC1)CC3 [I-A15, 4,4-difluoro-N-(2-(8-methoxy-3,4-dihydrobenzofuro[2,3-c]pyridin-2(1H)-yl)ethyl)cyclohexane-1-carboxamide] |
| 0.073 | 49.6 |  | 59.5 | 79 | 56 | 89 | 86.4 | COc1cccc2c3c(oc12)CN(CCCCn1ncc(=O)n(C)c1=O)CC3 [I-A22, 2-(4-(8-methoxy-3,4-dihydrobenzofuro[2,3-c]pyridin-2(1H)-yl)butyl)-4-methyl-1,2,4-triazine-3,5(2H,4H)-dione] |
| 2.55 | 31.6 |  | 102 | 21 | 12.9 | 12 | 233 | CCOc1cccc2c3c(oc12)CN(CCNC(=O)C1CCCCCC1)CC3 [I-A32, N-(2-(8-ethoxy-3,4-dihydrobenzofuro[2,3-c]pyridin-2(1H)-yl)ethyl)cycloheptanecarboxamide] |
